Data on five molecules can be found in US20260022142A1, “MACROCYCLIC IMMUNOMODULATORS” (Bristol-Myers Squibb Company, priority 2022, published 2026).

pIC50: −log10 of the molar value. Bridge positions count the residues as written; N and C are the ends. Square brackets hold non-standard residues; d marks the D form. Peptide text beside a SMILES is read from it. * marks the point of attachment. Bip = N[C@@H](Cc1ccc(-c2ccccc2)cc1)C(=O)O; Tyr(3-F) = N[C@@H](Cc1ccc(O)c(F)c1)C(=O)O; Tyr(3-Me) = Cc1cc(C[C@H](N)C(=O)O)ccc1O; Phe(3-Me) = Cc1cccc(C[C@H](N)C(=O)O)c1; Val(3-OH) = CC(C)(O)[C@H](N)C(=O)O; Cha = N[C@@H](CC1CCCCC1)C(=O)O; Carboxymethyl = O=C(O)C*; Orn = NCCC[C@H](N)C(=O)O; Aun = NCCCCCCCCCCC(=O)O; Dab = NCC[C@H](N)C(=O)O; Dap = NC[C@H](N)C(=O)O

The assay deals with T1, PD-1/PD-L1 interaction (PE-labeled human PD-L1-Ig binding to Jurkat cell line over-expressing human PD-1) (Homo sapiens, UniProt Q15116).
T1 construct: expressed in transfected cells; host or cells: Jurkat
T1 sequence (Q15116 25-288): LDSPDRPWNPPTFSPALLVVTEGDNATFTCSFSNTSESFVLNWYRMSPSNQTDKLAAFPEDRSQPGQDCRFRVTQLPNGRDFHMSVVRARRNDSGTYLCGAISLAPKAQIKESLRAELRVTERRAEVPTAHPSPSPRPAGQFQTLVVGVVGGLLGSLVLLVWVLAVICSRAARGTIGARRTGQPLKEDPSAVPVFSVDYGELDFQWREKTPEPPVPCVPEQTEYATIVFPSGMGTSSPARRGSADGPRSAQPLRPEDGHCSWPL
Briefly: Jurkat-PD-1 Cell Binding High-Content Screening Assay (CBA). It is filed as cell-based. The settings on record: Jurkat cell line over-expressing human PD-1; PE-labeled PD-L1-Ig 20 nM final; read-out: Jurkat hPD1-PDL1 IC50. The procedure, abridged: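 First, compound is added to PD-1-expressing Jurkat cells in serum-containing DMEM and left 2 h at 37° C. Next, PE-conjugated PD-L1-Ig is introduced at 20 nM final concentration for 1 hour. Finally, cells are fixed in 4% paraformaldehyde with Hoechst 33342, washed and imaged.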
Usually pIC50 stands for the IC50 on a negative log10 scale, so that one unit is a factor of ten. With `CC(C)C[C@H]1NC(=O)[C@H](CCCN)NC(=O)[C@H](Cc2ccc(OCC(=O)O)cc2)NC(=O)[C@H](Cc2ccc(-c3ccccc3)cc2)NC(=O)[C@H](Cc2ccc(O)cc2)NC(=O)[C@H](Cc2ccc(O)c(F)c2)NC(=O)[C@H](CC(=O)O)NC(=O)[C@H](Cc2ccc(OCC(=O)O)cc2)NC(=O)[C@H](CN)NC(=O)CSC[C@@H](C(=O)N[C@@H](CCN)C(=O)NCCCCCCCCCCC(=O)O)NC(=O)[C@H]([C@@H](C)O)NC(=O)[C@H](C(C)C)NC(=O)[C@H](CC2CCCCC2)NC(=O)[C@H](CCN)NC1=O` [Compound 2107] ({CH2CO}-[Dap]Y(Carboxymethyl)D[Tyr(3-F)]Y[Bip]Y(Carboxymethyl)[Orn][dL][Dab][Cha]VTC[Dab][Aun]-OH; thioether N-14), the negative-log IC50 (pIC50) is 6.93. For `Cc1cc(C[C@@H]2NC(=O)[C@H](CC(=O)O)NC(=O)[C@H](Cc3ccc(OCC(=O)O)cc3)NC(=O)[C@H](CN)NC(=O)CSC[C@@H](C(=O)N[C@@H](CCN)C(=O)NCCCCCCCCCCC(=O)O)NC(=O)[C@H]([C@@H](C)O)NC(=O)[C@H](C(C)C)NC(=O)[C@H](CC3CCCCC3)NC(=O)[C@H](CCN)NC(=O)[C@@H](CC(C)C)NC(=O)[C@H](CCCN)NC(=O)[C@H](Cc3ccc(OCC(=O)O)cc3)NC(=O)[C@H](Cc3ccc(-c4ccccc4)cc3)NC(=O)[C@H](Cc3ccc(O)cc3)NC2=O)ccc1O` [Compound 2108] ({CH2CO}-[Dap]Y(Carboxymethyl)D[Tyr(3-Me)]Y[Bip]Y(Carboxymethyl)[Orn][dL][Dab][Cha]VTC[Dab][Aun]-OH; thioether N-14) the value was 7.68; for `Cc1cccc(C[C@@H]2NC(=O)[C@H](CC(=O)O)NC(=O)[C@H](Cc3ccc(OCC(=O)O)cc3)NC(=O)[C@H](CCCNC(=N)N)NC(=O)CSC[C@@H](C(=O)N[C@@H](CCN)C(=O)NCCCCCCCCCCC(=O)O)NC(=O)[C@H]([C@@H](C)O)NC(=O)[C@H](C(C)C)NC(=O)[C@H](CC3CCCCC3)NC(=O)[C@H](CCN)NC(=O)[C@@H](CC(C)C)NC(=O)[C@H](CCCN)NC(=O)[C@H](Cc3ccc(OCC(=O)O)cc3)NC(=O)[C@H](Cc3ccc(-c4ccccc4)cc3)NC(=O)[C@H](C(C)(C)O)NC2=O)c1` [Compound 2109] ({CH2CO}-RY(Carboxymethyl)D[Phe(3-Me)][Val(3-OH)][Bip]Y(Carboxymethyl)[Orn][dL][Dab][Cha]VTC[Dab][Aun]-OH; thioether N-14), 7.65.

As to `Cc1cccc(C[C@@H]2NC(=O)[C@H](CC(=O)O)NC(=O)[C@H](Cc3ccc(OCC(=O)O)cc3)NC(=O)[C@H](CCCNC(=N)N)NC(=O)CSC[C@@H](C(=O)N[C@@H](CCN)C(=O)NCCCCCCCCCCC(=O)O)NC(=O)[C@H](CO)NC(=O)[C@H](C(C)C)NC(=O)[C@H](CC3CCCCC3)NC(=O)[C@H](CCN)NC(=O)[C@@H](CC(C)C)NC(=O)[C@H](CCCN)NC(=O)[C@H](Cc3ccc(OCC(=O)O)cc3)NC(=O)[C@H](Cc3ccc(-c4ccccc4)cc3)NC(=O)[C@H](C(C)(C)O)NC2=O)c1` [Compound 2110] ({CH2CO}-RY(Carboxymethyl)D[Phe(3-Me)][Val(3-OH)][Bip]Y(Carboxymethyl)[Orn][dL][Dab][Cha]VSC[Dab][Aun]-OH; thioether N-14), the negative logarithm of the IC50 (pIC50) was 7.62. For the molecule `Cc1cccc(C[C@@H]2NC(=O)[C@H](CC(=O)O)NC(=O)[C@H](Cc3ccc(OCC(=O)O)cc3)NC(=O)[C@H](CCCNC(=N)N)NC(=O)CSC[C@@H](C(=O)N[C@@H](CCN)C(=O)NCCCCCCCCCCC(=O)O)NC(=O)[C@H](CO)NC(=O)[C@H](C(C)(C)O)NC(=O)[C@H](CC3CCCCC3)NC(=O)[C@H](CCN)NC(=O)[C@@H](CC(C)C)NC(=O)[C@H](CCCN)NC(=O)[C@H](Cc3ccc(OCC(=O)O)cc3)NC(=O)[C@H](Cc3ccc(-c4ccccc4)cc3)NC(=O)[C@H](Cc3ccc(O)cc3)NC2=O)c1` [Compound 2111] ({CH2CO}-RY(Carboxymethyl)D[Phe(3-Me)]Y[Bip]Y(Carboxymethyl)[Orn][dL][Dab][Cha][Val(3-OH)]SC[Dab][Aun]-OH; thioether N-14), the pIC50 was 8.19.
